Measurements from ChEMBL document CHEMBL4396913, “Synthesis and biological evaluation of hybrid quinolone-based quaternary ammonium antibacterial agents” (Eur J Med Chem, 2019).
In brackets after ≈: the same amount, converted by molar mass.

How the values were obtained:
[1] = Lipophilicity, log k of the compound at 100 ug/ml by micellar electrokinetic chromatography; type: physicochemical
Staphylococcus aureus [2] = assay: Antibacterial activity against Staphylococcus aureus ATCC 6538 cultured in MH medium assessed as reduction in bacterial growth incubated for 48 hrs by microbroth dilution method; type: functional; conditions: ATCC 6538, 48 h
Staphylococcus aureus [3] = assay: Antibacterial activity against methicillin resistant Staphylococcus aureus N315 cultured in MH medium assessed as reduction in bacterial growth incubated for 48 hrs by microbroth dilution method; type: functional; conditions: N315, 48 h
[4] = test system: Staphylococcus epidermidis; assay: Antibacterial activity against Staphylococcus epidermidis ATCC 14990 cultured in MH medium assessed as reduction in bacterial growth incubated for 48 hrs by microbroth dilution method; type: functional; conditions: ATCC 14990, 48 h
Enterococcus hirae = assay: Antibacterial activity against Enterococcus hirae ATCC 1052 cultured in BHI medium assessed as reduction in bacterial growth incubated for 48 hrs by microbroth dilution method; type: functional; conditions: ATCC 1052, 48 h
Bacillus spizizenii [5] = assay: Antibacterial activity against Bacillus subtilis ATCC 6633 cultured in MH medium assessed as reduction in bacterial growth incubated for 48 hrs by microbroth dilution method; type: functional; conditions: ATCC 6633, 48 h
Escherichia coli [6] = assay: Antibacterial activity against Escherichia coli ATCC 8739 cultured in MH medium assessed as reduction in bacterial growth incubated for 48 hrs by microbroth dilution method; type: functional; conditions: ATCC 8739, 48 h
Pseudomonas aeruginosa [7] = assay: Antibacterial activity against Pseudomonas aeruginosa ATCC 9027 cultured in MH medium assessed as reduction in bacterial growth incubated for 48 hrs by microbroth dilution method; type: functional; conditions: ATCC 9027, 48 h
Proteus vulgaris [8] = assay: Antibacterial activity against Proteus vulgaris NCTC 4635 cultured in MH medium assessed as reduction in bacterial growth incubated for 48 hrs by microbroth dilution method; type: functional; conditions: NCTC 4635, 48 h
Proteus vulgaris [9] = assay: Bactericidal activity against Proteus vulgaris NCTC 4635 cultured in MH medium assessed as reduction in bacterial survival incubated for 48 hrs by microbroth dilution method; type: functional; conditions: NCTC 4635, 48 h
Staphylococcus aureus [10] = assay: Antibacterial activity against methicillin resistant Staphylococcus aureus 6347 cultured in MH medium assessed as reduction in bacterial growth incubated for 48 hrs by microbroth dilution method; type: functional; conditions: Staphylococcus aureus, 6347, 48 h
[11] = test system: Staphylococcus epidermidis; assay: Antibacterial activity against methicillin resistant Staphylococcus epidermidis ATCC 13199 cultured in MH medium assessed as reduction in bacterial growth incubated for 48 hrs by microbroth dilution method; type: functional; conditions: ATCC 13199, 48 h
Streptococcus pneumoniae = assay: Antibacterial activity against Streptococcus pneumoniae cultured in MH medium assessed as reduction in bacterial growth incubated for 48 hrs by microbroth dilution method; type: functional
Serratia marcescens [12] = assay: Antibacterial activity against Serratia marcescens ATCC 12795 cultured in MH medium assessed as reduction in bacterial growth incubated for 48 hrs by microbroth dilution method; type: functional; conditions: ATCC 12795, 48 h
HEK293 [13] = assay: Cytotoxicity against human HEK293 cells assessed as cell viability upto 20 uM incubated for 72 hrs by MTT assay; type: cell-based; conditions: hek293, 72 h
HEK293 [14] = assay: Cytotoxicity against human HEK293 cells assessed as changes in cell morphology upto 20 uM incubated for 72 hrs by MTT assay; type: cell-based; conditions: hek293, 72 h
Staphylococcus aureus [15] = assay: Bactericidal activity against Staphylococcus aureus ATCC 6538 cultured in MH medium assessed as reduction in bacterial survival incubated for 48 hrs by microbroth dilution method; type: functional; conditions: ATCC 6538, 48 h
Staphylococcus aureus [16] = assay: Bactericidal activity against methicillin resistant Staphylococcus aureus N315 cultured in MH medium assessed as reduction in bacterial survival incubated for 48 hrs by microbroth dilution method; type: functional; conditions: N315, 48 h
[17] = test system: Staphylococcus epidermidis; assay: Bactericidal activity against Staphylococcus epidermidis ATCC 14990 cultured in MH medium assessed as reduction in bacterial survival incubated for 48 hrs by microbroth dilution method; type: functional; conditions: ATCC 14990, 48 h
Bacillus spizizenii [18] = assay: Bactericidal activity against Bacillus subtilis ATCC 6633 cultured in MH medium assessed as reduction in bacterial survival incubated for 48 hrs by microbroth dilution method; type: functional; conditions: ATCC 6633, 48 h
Escherichia coli [19] = assay: Bactericidal activity against Escherichia coli ATCC 8739 cultured in MH medium assessed as reduction in bacterial survival incubated for 48 hrs by microbroth dilution method; type: functional; conditions: ATCC 8739, 48 h
Pseudomonas aeruginosa [20] = assay: Bactericidal activity against Pseudomonas aeruginosa ATCC 9027 cultured in MH medium assessed as reduction in bacterial survival incubated for 48 hrs by microbroth dilution method; type: functional; conditions: ATCC 9027, 48 h
Staphylococcus aureus [21] = assay: Bactericidal activity against methicillin resistant Staphylococcus aureus 6347 cultured in MH medium assessed as reduction in bacterial survival incubated for 48 hrs by microbroth dilution method; type: functional; conditions: Staphylococcus aureus, 6347, 48 h
[22] = test system: Staphylococcus epidermidis; assay: Bactericidal activity against methicillin resistant Staphylococcus epidermidis ATCC 13199 cultured in MH medium assessed as reduction in bacterial survival incubated for 48 hrs by microbroth dilution method; type: functional; conditions: ATCC 13199, 48 h
Serratia marcescens [23] = assay: Bactericidal activity against Serratia marcescens ATCC 12795 cultured in MH medium assessed as reduction in bacterial survival incubated for 48 hrs by microbroth dilution method; type: functional; conditions: ATCC 12795, 48 h
Escherichia coli [24] = assay: Antibacterial activity against […] Escherichia coli ATCC 8739 assessed as reduction in bacterial growth incubated for 48 hrs in presence of 50 ug/ml […], PAbetaN by microbroth dilution method; type: functional; conditions: ATCC 8739, 48 h
Escherichia coli [25] = assay: Bactericidal activity against […] Escherichia coli ATCC 8739 assessed as reduction in bacterial survival incubated for 48 hrs in presence of 50 ug/ml […], PAbetaN by microbroth dilution method; type: functional; conditions: ATCC 8739, 48 h

## CCn1cc(C(=O)O)c(=O)c2cnc(N3CC[N+]4(CC3)CN3C(C)=CC(C)=C(C(=O)O)C3=N4)nc21.[Cl-]
[1]
  log K: -0.5725
Staphylococcus aureus [2]
  MIC: > 512 µg/mL
Staphylococcus aureus [3]
  MIC: > 512 µg/mL
[4]
  MIC: > 512 µg/mL
Enterococcus hirae
  MIC: > 512 µg/mL
Bacillus spizizenii [5]
  MIC: > 512 µg/mL
Escherichia coli [6]
  MIC: > 512 µg/mL
Pseudomonas aeruginosa [7]
  MIC: > 512 µg/mL
Proteus vulgaris [8]
  MIC: 256 µg/mL
Proteus vulgaris [9]
  MBC: > 512 µg/mL
Staphylococcus aureus [10]
  MIC: > 512 µg/mL
[11]
  MIC: > 512 µg/mL
Streptococcus pneumoniae
  MIC: > 512 µg/mL
Serratia marcescens [12]
  MIC: > 512 µg/mL
HEK293 [13]
  Activity: Non-Toxic
HEK293 [14]
  Activity: Non-Toxic

## CCn1cc(C(=O)O)c(=O)c2cc(F)c(N3CC[N+]4(CN5C(C)=CC(C)=C(C(=O)O)C5=N4)C(C)C3)c(F)c21.[Cl-] (stereo unspecified)
[1]
  log K: -0.4791
Staphylococcus aureus [2]
  MIC: 64 µg/mL
Staphylococcus aureus [15]
  MBC: 64 µg/mL
Staphylococcus aureus [3]
  MIC: 128 µg/mL
Staphylococcus aureus [16]
  MBC: 128 µg/mL
[4]
  MIC: 32 µg/mL
[17]
  MBC: 64 µg/mL
Enterococcus hirae
  MIC: > 512 µg/mL
Bacillus spizizenii [5]
  MIC: 8 µg/mL
Bacillus spizizenii [18]
  MBC: 8 µg/mL
Escherichia coli [6]
  MIC: 4 µg/mL
Escherichia coli [19]
  MBC: 8 µg/mL
Pseudomonas aeruginosa [7]
  MIC: 128 µg/mL
Pseudomonas aeruginosa [20]
  MBC: > 512 µg/mL
Proteus vulgaris [8]
  MIC: 1 µg/mL
Proteus vulgaris [9]
  MBC: 1 µg/mL
Staphylococcus aureus [10]
  MIC: 128 µg/mL
Staphylococcus aureus [21]
  MBC: 128 µg/mL
[11]
  MIC: 16 µg/mL
[22]
  MBC: 32 µg/mL
Streptococcus pneumoniae
  MIC: > 512 µg/mL
Serratia marcescens [12]
  MIC: 64 µg/mL
Serratia marcescens [23]
  MBC: 64 µg/mL
Escherichia coli [24]
  MIC: 2 µg/mL
Escherichia coli [25]
  MBC: 4 µg/mL
HEK293 [13]
  Activity: Non-Toxic
HEK293 [14]
  Activity: Non-Toxic

## CCn1cc(C(=O)O)c(=O)c2cc(F)c(N3CC[N+]4(CC3)CN3C(C)=CC(C)=C(C(=O)O)C3=N4)cc21.[Cl-]
[1]
  log K: -0.2721
Staphylococcus aureus [2]
  MIC: 64 µg/mL
Staphylococcus aureus [15]
  MBC: 128 µg/mL
Staphylococcus aureus [3]
  MIC: 128 µg/mL
Staphylococcus aureus [16]
  MBC: 128 µg/mL
[4]
  MIC: 64 µg/mL
[17]
  MBC: 128 µg/mL
Enterococcus hirae
  MIC: > 512 µg/mL
Bacillus spizizenii [5]
  MIC: 16 µg/mL
Bacillus spizizenii [18]
  MBC: 64 µg/mL
Escherichia coli [6]
  MIC: 4 µg/mL
Escherichia coli [19]
  MBC: 8 µg/mL
Pseudomonas aeruginosa [7]
  MIC: 256 µg/mL
Pseudomonas aeruginosa [20]
  MBC: > 512 µg/mL
Proteus vulgaris [8]
  MIC: 0.25 µg/mL
Proteus vulgaris [9]
  MBC: 0.5 µg/mL
Staphylococcus aureus [10]
  MIC: 64 µg/mL
Staphylococcus aureus [21]
  MBC: 128 µg/mL
[11]
  MIC: 32 µg/mL
[22]
  MBC: 32 µg/mL
Streptococcus pneumoniae
  MIC: > 512 µg/mL
Serratia marcescens [12]
  MIC: 64 µg/mL
Serratia marcescens [23]
  MBC: 128 µg/mL
HEK293 [13]
  Activity: Non-Toxic
HEK293 [14]
  Activity: Non-Toxic

## CCn1cc(C(=O)O)c(=O)c2cnc(N3CCNCC3)nc21 [PIPEMIDIC ACID]
[1]
  log K: -0.1697
Staphylococcus aureus [2]
  MIC: 64 µg/mL (≈ 211 µM)
Staphylococcus aureus [15]
  MBC: 128 µg/mL (≈ 422 µM)
Staphylococcus aureus [3]
  MIC: 32 µg/mL (≈ 105 µM)
Staphylococcus aureus [16]
  MBC: 32 µg/mL (≈ 105 µM)
[4]
  MIC: 32 µg/mL (≈ 105 µM)
[17]
  MBC: 32 µg/mL (≈ 105 µM)
Enterococcus hirae
  MIC: > 512 µg/mL
Bacillus spizizenii [5]
  MIC: 2 µg/mL (≈ 6.59 µM)
Bacillus spizizenii [18]
  MBC: 2 µg/mL (≈ 6.59 µM)
Escherichia coli [6]
  MIC: 2 µg/mL (≈ 6.59 µM)
Escherichia coli [19]
  MBC: 2 µg/mL (≈ 6.59 µM)
Pseudomonas aeruginosa [7]
  MIC: 8 µg/mL (≈ 26.4 µM)
Pseudomonas aeruginosa [20]
  MBC: 8 µg/mL (≈ 26.4 µM)
Proteus vulgaris [8]
  MIC: 0.004 µg/mL (≈ 0.0132 µM)
Proteus vulgaris [9]
  MBC: 0.004 µg/mL (≈ 0.0132 µM)
Staphylococcus aureus [10]
  MIC: 32 µg/mL (≈ 105 µM)
Staphylococcus aureus [21]
  MBC: 32 µg/mL (≈ 105 µM)
[11]
  MIC: 32 µg/mL (≈ 105 µM)
[22]
  MBC: 64 µg/mL (≈ 211 µM)
Streptococcus pneumoniae
  MIC: > 512 µg/mL
Serratia marcescens [12]
  MIC: 2 µg/mL (≈ 6.59 µM)
Serratia marcescens [23]
  MBC: 2 µg/mL (≈ 6.59 µM)

## CCn1cc(C(=O)O)c(=O)c2cc(F)c(N3CC[N+]4(CC3)CN3C(=N4)C(C(=O)O)=Cc4ccccc43)cc21.[Cl-]
[1]
  log K: -0.1044
Staphylococcus aureus [2]
  MIC: 64 µg/mL
Staphylococcus aureus [15]
  MBC: 64 µg/mL
Staphylococcus aureus [3]
  MIC: 64 µg/mL
Staphylococcus aureus [16]
  MBC: 64 µg/mL
[4]
  MIC: 32 µg/mL
[17]
  MBC: 32 µg/mL
Enterococcus hirae
  MIC: > 512 µg/mL
Bacillus spizizenii [5]
  MIC: 16 µg/mL
Bacillus spizizenii [18]
  MBC: 16 µg/mL
Escherichia coli [6]
  MIC: 4 µg/mL
Escherichia coli [19]
  MBC: 4 µg/mL
Pseudomonas aeruginosa [7]
  MIC: 64 µg/mL
Pseudomonas aeruginosa [20]
  MBC: 64 µg/mL
Proteus vulgaris [8]
  MIC: 2 µg/mL
Proteus vulgaris [9]
  MBC: 2 µg/mL
Staphylococcus aureus [10]
  MIC: 32 µg/mL
Staphylococcus aureus [21]
  MBC: 32 µg/mL
[11]
  MIC: 64 µg/mL
[22]
  MBC: 64 µg/mL
Streptococcus pneumoniae
  MIC: > 512 µg/mL
Serratia marcescens [12]
  MIC: 32 µg/mL
Serratia marcescens [23]
  MBC: 32 µg/mL
HEK293 [13]
  Activity: Non-Toxic
HEK293 [14]
  Activity: Non-Toxic
